Patent US20090304692A1, “TRIAZINE COMPOUNDS AS PI3 KINASE AND MTOR INHIBITORS” (Wyeth, priority 2008, published 2009)
Values joined by “and” are separate entries in the source; they are usually repeats but may differ in a detail not shown here. Equal entries are not always repeated. Where two headings read alike, the source gives them in different places.

What was measured:
Human mTOR (FLAG-TOR) = Human mTOR (FLAG-TOR) (Homo sapiens, UniProt P42345); experiment: mTOR kinase assay (DELFIA format, purified enzyme); format: biochemical; details: read-out: IC50 mTOR
Chain of Human mTOR (FLAG-TOR) (P42345 1360-2549 limits assumed): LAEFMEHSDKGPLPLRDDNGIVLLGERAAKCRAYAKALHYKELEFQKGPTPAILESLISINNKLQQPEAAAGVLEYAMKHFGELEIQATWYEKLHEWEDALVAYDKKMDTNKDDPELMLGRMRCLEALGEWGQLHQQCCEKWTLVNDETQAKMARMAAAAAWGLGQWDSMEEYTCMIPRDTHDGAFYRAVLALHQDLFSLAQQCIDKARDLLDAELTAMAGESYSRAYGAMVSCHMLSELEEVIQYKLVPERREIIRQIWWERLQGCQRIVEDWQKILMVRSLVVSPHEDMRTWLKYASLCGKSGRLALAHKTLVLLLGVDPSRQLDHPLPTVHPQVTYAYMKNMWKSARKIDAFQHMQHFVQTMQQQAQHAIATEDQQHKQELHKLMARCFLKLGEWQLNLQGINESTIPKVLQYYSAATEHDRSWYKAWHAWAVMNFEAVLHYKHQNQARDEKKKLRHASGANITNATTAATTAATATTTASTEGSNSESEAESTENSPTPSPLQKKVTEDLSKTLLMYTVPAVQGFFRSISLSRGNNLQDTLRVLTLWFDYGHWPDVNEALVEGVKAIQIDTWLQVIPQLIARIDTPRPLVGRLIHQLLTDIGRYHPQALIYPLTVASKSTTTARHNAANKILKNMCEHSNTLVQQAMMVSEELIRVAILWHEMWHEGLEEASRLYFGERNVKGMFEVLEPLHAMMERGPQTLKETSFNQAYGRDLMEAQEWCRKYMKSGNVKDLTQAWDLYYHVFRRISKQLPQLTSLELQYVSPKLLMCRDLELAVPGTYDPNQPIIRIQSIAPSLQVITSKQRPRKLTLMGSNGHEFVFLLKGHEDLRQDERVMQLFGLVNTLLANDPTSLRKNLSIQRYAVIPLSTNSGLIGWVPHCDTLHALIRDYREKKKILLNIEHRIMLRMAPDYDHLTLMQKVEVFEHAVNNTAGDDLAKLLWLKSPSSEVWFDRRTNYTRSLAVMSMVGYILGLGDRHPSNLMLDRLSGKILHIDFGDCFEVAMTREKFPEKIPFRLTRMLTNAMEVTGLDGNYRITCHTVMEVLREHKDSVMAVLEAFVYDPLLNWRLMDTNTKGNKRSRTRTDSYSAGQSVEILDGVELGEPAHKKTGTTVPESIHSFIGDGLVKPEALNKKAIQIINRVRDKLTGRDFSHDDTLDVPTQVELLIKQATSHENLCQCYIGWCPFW

[1] = tested on: human breast MDA-MB-361 tumor cell line; experiment: In vitro cell culture growth assay (MTS), MDA-MB-361; format: cell-based; details: Homo sapiens, three days after drug treatment, read-out: IC50 MDA-MB-361
[2] = tested on: human prostate PC3-mm2 tumor cell line; experiment: In vitro cell culture growth assay (MTS), PC3-mm2; format: cell-based; details: Homo sapiens, PC3MM2, 72 h, three days after drug treatment, read-out: IC50 PC3-mm2
PI3K-α = PI3K-α (Homo sapiens, UniProt P42336); experiment: PI3K-alpha fluorescence polarization assay; details: read-out: IC50 PI3Kα
Chain of PI3K-α (P42336 whole entry, species assumed): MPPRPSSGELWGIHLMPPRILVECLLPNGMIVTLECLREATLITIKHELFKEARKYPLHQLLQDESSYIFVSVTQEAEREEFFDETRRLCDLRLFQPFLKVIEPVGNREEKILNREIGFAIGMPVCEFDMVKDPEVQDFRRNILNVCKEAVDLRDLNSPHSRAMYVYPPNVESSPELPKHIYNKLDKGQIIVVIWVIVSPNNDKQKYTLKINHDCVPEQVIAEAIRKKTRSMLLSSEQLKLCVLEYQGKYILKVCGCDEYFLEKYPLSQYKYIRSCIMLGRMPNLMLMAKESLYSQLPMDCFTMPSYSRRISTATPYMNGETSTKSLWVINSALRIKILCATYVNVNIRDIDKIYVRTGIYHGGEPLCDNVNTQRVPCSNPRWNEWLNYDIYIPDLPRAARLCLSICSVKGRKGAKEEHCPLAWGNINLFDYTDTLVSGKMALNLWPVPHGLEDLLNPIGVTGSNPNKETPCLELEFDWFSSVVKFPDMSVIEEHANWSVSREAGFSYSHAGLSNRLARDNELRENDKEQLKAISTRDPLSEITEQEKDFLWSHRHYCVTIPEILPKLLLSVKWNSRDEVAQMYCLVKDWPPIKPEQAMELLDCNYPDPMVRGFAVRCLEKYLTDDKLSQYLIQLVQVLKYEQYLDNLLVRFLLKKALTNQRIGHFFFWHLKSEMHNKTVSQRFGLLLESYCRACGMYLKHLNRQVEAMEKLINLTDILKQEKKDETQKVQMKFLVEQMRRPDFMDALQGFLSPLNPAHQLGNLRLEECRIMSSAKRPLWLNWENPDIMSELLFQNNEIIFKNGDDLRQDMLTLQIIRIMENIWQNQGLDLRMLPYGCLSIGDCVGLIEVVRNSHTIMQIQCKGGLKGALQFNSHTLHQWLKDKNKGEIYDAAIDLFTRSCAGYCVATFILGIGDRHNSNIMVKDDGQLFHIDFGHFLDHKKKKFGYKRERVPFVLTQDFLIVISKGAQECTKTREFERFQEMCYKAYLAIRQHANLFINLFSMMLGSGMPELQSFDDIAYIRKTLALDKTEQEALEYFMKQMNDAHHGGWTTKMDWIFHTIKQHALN
Chain of PI3K-α (P27986 whole entry partner, species assumed): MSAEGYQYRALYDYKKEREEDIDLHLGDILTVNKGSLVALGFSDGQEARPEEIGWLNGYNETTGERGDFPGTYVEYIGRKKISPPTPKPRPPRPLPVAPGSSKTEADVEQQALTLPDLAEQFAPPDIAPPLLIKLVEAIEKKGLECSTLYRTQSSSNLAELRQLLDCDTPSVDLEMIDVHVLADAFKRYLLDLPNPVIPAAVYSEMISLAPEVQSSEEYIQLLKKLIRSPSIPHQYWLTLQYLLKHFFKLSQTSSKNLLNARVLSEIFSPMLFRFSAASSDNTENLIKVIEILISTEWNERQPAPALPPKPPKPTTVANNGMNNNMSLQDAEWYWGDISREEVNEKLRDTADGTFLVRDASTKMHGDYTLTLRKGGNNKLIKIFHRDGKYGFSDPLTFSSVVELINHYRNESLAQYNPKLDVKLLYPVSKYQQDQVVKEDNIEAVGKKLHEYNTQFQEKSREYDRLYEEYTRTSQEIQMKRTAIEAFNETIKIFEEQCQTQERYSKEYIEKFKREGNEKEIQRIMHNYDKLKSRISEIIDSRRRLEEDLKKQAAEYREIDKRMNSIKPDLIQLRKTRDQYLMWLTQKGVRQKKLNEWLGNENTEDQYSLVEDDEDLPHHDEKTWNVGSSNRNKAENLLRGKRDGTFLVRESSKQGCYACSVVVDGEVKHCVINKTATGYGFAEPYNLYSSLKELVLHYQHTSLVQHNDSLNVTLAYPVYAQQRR

PI3K-γ = PI3K-γ (Homo sapiens, UniProt P48736); experiment: PI3K-gamma fluorescence polarization assay; details: read-out: IC50 PI3Kγ
Chain of PI3K-γ (P48736 whole entry, species assumed): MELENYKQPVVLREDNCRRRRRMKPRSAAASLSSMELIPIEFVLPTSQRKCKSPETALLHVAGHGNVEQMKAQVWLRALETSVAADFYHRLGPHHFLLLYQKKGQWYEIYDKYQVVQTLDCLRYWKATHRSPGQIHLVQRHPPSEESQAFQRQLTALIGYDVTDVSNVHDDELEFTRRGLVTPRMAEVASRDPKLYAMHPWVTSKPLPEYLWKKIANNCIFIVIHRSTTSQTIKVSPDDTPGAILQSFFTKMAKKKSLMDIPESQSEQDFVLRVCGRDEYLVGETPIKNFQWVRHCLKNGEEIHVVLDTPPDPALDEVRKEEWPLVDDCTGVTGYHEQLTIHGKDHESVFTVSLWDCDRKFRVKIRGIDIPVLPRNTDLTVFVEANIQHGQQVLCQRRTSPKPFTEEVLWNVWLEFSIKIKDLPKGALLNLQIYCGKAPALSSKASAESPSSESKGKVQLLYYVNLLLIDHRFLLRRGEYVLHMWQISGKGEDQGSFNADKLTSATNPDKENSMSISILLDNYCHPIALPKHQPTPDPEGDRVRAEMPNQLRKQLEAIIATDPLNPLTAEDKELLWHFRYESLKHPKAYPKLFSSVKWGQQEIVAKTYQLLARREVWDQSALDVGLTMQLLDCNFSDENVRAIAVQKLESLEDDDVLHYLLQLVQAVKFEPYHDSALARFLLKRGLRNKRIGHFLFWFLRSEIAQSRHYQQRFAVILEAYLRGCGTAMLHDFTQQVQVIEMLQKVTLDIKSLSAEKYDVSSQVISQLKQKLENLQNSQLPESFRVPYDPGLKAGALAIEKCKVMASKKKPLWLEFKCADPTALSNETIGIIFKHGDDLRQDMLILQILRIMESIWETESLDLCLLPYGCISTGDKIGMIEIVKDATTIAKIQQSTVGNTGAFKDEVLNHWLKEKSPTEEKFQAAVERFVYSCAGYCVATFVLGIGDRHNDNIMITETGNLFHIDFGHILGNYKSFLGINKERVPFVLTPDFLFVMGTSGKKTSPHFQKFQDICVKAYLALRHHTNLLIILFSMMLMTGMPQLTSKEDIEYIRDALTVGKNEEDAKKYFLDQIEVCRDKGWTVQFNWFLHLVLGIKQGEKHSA

[3] = MDA-MB-361, 72 h, MTS cell growth assay
[4] = MDA-MB-361, 72 h, MTS cell growth assay, MDA-MB-361 cells
[5] = MTS cell growth assay, PC3-mm2 cells
[6] = 72 h, MTS cell growth assay, MDA-MB-361 cells

SMILES	IC50 (Human mTOR (FLAG-TOR))	IC50 (PI3K-α) [µM]	IC50 (PI3K-γ) [µM]	IC50 [1, 3] [µM]	IC50 ([2]; MTS cell growth assay) [µM]	IC50 [1, 4] [µM]	IC50 [2, 5] [µM]	other results
CN(C)CCNC(=O)c1ccc(NC(=O)Nc2ccc(-c3nc(N4CCOCC4)nc(N4C5CCCC4COC5)n3)cc2)cc1 [Example 796, N-[2-(dimethylamino)ethyl]-4-[({4-[4-morpholin-4-yl-6-(3-oxa-9-azabicyclo[3.3.1]non-9-yl)-1,3,5-triazin-2-yl]phenyl}carbamoyl)amino]benzamide]	0.00039 µM	0.0026	0.0315	–	–	–	–	IC50 ([1]; 72 h, MDA-MB-361 cells, MTS): 0.002 µM; IC50 ([2]; PC3-mm2 cells, MTS): 0.018 µM
O=C(Nc1ccccc1)Nc1ccc(-c2nc(N3CCOCC3)nc(N3CCOCC3)n2)cc1 [Example 3, 1-[4-(4,6-dimorpholin-4-yl-1,3,5-triazin-2-yl)phenyl]-3-phenylurea]	0.00385 µM	0.003	0.027	0.045	0.043	–	–	–
CCN1CCN(C(=O)c2ccc(NC(=O)Nc3ccc(-c4nc(N5CCOCC5)nc(N5CCOC[C@@H]5C)n4)cc3)cc2)CC1 [Example 620, 1-{4-[(4-ethylpiperazin-1-yl)carbonyl]phenyl}-3-(4-{4-[(3S)-3-methylmorpholin-4-yl]-6-morpholin-4-yl-1,3,5-triazin-2-yl}phenyl)urea]	0.003 µM	0.004	0.0325	–	–	0.004	0.016	–
C=Cc1ccc(NC(=O)Nc2ccc(-c3nc(N4CCOCC4)nc(N4C5CCC4COC5)n3)cc2)cc1 [Example 249, 1-(4-ethenylphenyl)-3-{4-[4-morpholin-4-yl-6-(3-oxa-8-azabicyclo[3.2.1]oct-8-yl)-1,3,5-triazin-2-yl]phenyl}urea]	0.002 µM and 0.0025 µM	0.025	0.216	0.092	0.142	–	0.142	IC50 (PI3K-γ; listed as 726): 0.216 µM
COC(=O)c1ccc(NC(=O)Nc2ccc(-c3nc(OC(C)C)nc(N4CCOCC4)n3)cc2)cc1 [Example 95, methyl 4-({[4-(4-isopropoxy-6-morpholin-4-yl-1,3,5-triazin-2-yl)phenyl]carbamoyl}amino)benzoate]	0.00275 µM	0.048	0.101	0.333	0.364	–	–	–
CCN1CCN(C(=O)c2ccc(NC(=O)Nc3ccc(-c4nc(N5CCOCC5)nc(N5C6COCC5COC6)n4)cc3)cc2)CC1 [Example 806, 1-{4-[4-(3,7-dioxa-9-azabicyclo[3.3.1]non-9-yl)-6-morpholin-4-yl-1,3,5-triazin-2-yl]phenyl}-3-{4-[(4-ethylpiperazin-1-yl)carbonyl]phenyl}urea]	0.00024 µM	0.0045	0.047	–	–	–	–	IC50 ([1]; MDA-MB-361, 72 h, MDA-MB-361 cells, MTS): < 0.0032 µM; IC50 ([2]; PC3-mm2 cells, MTS): 0.009 µM
CN1CCN(C(=O)c2ccc(NC(=O)Nc3ccc(-c4nc(NS(=O)(=O)c5ccccc5)nc(N5CCOCC5)n4)cc3)cc2)CC1 [Example 784, N-(4-{4-[({4-[(4-methylpiperazin-1-yl)carbonyl]phenyl}carbamoyl)amino]phenyl}-6-morpholin-4-yl-1,3,5-triazin-2-yl)benzenesulfonamide]	0.088 µM	0.0405	0.174	–	–	–	> 1	IC50 [1, 6]: > 1 µM
CN(C)C1CCN(C(=O)c2ccc(NC(=O)Nc3ccc(-c4nc(N5CCOCC5)nc(N5C6CCC5COC6)n4)cc3)cc2)CC1 [Example 752, 1-(4-{[4-(dimethylamino)piperidin-1-yl]carbonyl}phenyl)-3-{4-[4-morpholin-4-yl-6-(3-oxa-8-azabicyclo[3.2.1]oct-8-yl)-1,3,5-triazin-2-yl]phenyl}urea]	0.00029 µM	0.0012	0.0185	–	–	< 0.003	0.006	–
CN(C)CCCNC(=O)c1ccc(NC(=O)Nc2ccc(-c3nc(N4CCOCC4)nc(N4C5CCC4COC5)n3)cc2)cc1 [Example 700, N-[3-(dimethylamino)propyl]-4-[({4-[4-morpholin-4-yl-6-(3-oxa-8-azabicyclo[3.2.1]oct-8-yl)-1,3,5-triazin-2-yl]phenyl}carbamoyl)amino]benzamide]	0.00053 µM	0.0025	0.0415	–	–	–	0.02	IC50 [1, 6]: 0.005 µM
CN(C)C1CCN(C(=O)c2ccc(NC(=O)Nc3ccc(-c4nc(NS(=O)(=O)c5ccccc5)nc(N5CCOCC5)n4)cc3)cc2)CC1 [Example 786, N-[4-(4-{[(4-{[4-(dimethylamino)piperidin-1-yl]carbonyl}phenyl)carbamoyl]amino}phenyl)-6-morpholin-4-yl-1,3,5-triazin-2-yl]benzenesulfonamide]	0.089 µM	0.0305	0.129	–	–	> 1	> 1	–
CN(C)CCNCCCc1nc(-c2ccc(NC(=O)Nc3ccncc3)cc2)nc(N2CCOCC2)n1 [Example 278, 1-{4-[4-(3-{[2-(dimethylamino)ethyl]amino}propyl)-6-morpholin-4-yl-1,3,5-triazin-2-yl]phenyl}-3-pyridin-4-ylurea]	0.25 µM and 0.123 µM	0.026	0.344	2.3	3.7	–	3.7	IC50 (PI3K-α; listed as 735): 0.0265 µM; IC50 (PI3K-γ; listed as 735): 0.289 µM
Nc1nc2cc(-c3nc(N4CCOCC4)nc(N4C5CCC4COC5)n3)ccc2[nH]1 [Example 684, 5-[4-morpholin-4-yl-6-(3-oxa-8-azabicyclo[3.2.1]oct-8-yl)-1,3,5-triazin-2-yl]-1H-benzimidazol-2-amine]	0.0235 µM	0.154	2.35	–	–	–	1.02	IC50 [1, 6]: 0.806 µM
O=C(Nc1ccc(-c2nc(N3CCOCC3)nc(N3C4CCC3COC4)n2)cc1)Nc1cccnc1 [Example 36, 1-{4-[4-morpholin-4-yl-6-(3-oxa-8-azabicyclo[3.2.1]oct-8-yl)-1,3,5-triazin-2-yl]phenyl}-3-pyridin-3-ylurea]	0.00051 µM and 0.000505 µM	0.017	0.15	0.073	0.098	0.073	0.098	IC50 (PI3K-α; listed as 671): 0.0175 µM; IC50 (PI3K-γ; listed as 671): 0.15 µM
CC(C)NCCCc1nc(-c2ccc(NC(=O)Nc3ccncc3)cc2)nc(N2CCOCC2)n1 [Example 275, 1-[4-(4-{3-[(1-methylethyl)amino]propyl}-6-morpholin-4-yl-1,3,5-triazin-2-yl)phenyl]-3-pyridin-4-ylurea]	0.07 µM and 0.069 µM	0.046	0.711	3.1	4.31	–	4.31	IC50 (PI3K-α; listed as 732): 0.044 µM; IC50 (PI3K-γ; listed as 732): 0.478 µM
CN(C)C1CCN(C(=O)c2ccc(NC(=O)Nc3ccc(-c4nc(N5CCCC5)nc(N5CCOCC5)n4)cc3)cc2)CC1 [Example 602, 1-(4-{[4-(dimethylamino)piperidin-1-yl]carbonyl}phenyl)-3-[4-(4-morpholin-4-yl-6-pyrrolidin-1-yl-1,3,5-triazin-2-yl)phenyl]urea]	0.011 µM	0.007	0.0465	–	–	0.017	0.122	–
O=C(Nc1ccc(C(=O)N2CCNCC2)cc1)Nc1ccc(-c2nc(N3CCOCC3)nc(N3C4CCC3COC4)n2)cc1 [Example 756, 1-{4-[4-morpholin-4-yl-6-(3-oxa-8-azabicyclo[3.2.1]oct-8-yl)-1,3,5-triazin-2-yl]phenyl}-3-[4-(piperazin-1-ylcarbonyl)phenyl]urea]	0.0002 µM	0.0005	0.007	–	–	< 0.003	0.012	–
